These results are taken from ChEMBL document CHEMBL1255193, “Structure-based optimization of pyrazolo-pyrimidine and -pyridine inhibitors of PI3-kinase” (Bioorg Med Chem Lett, 2010).

For data set [1], the target named is Phosphatidylinositol 4,5-bisphosphate 3-kinase catalytic subunit alpha isoform (Homo sapiens, UniProt P42336). As to the kind of experiment: Inhibition of PI3Kalpha.
A short description of data set [2]: Plasma clearance in rat. Format: ADME, organism-based.
A short description of data set [3]: Solubility of the compound at pH 6.5. Particulars: buffer. The format is physicochemical.
Data set [4] in a line: Apparent permeability of the compound from apical to basolateral direction in MDCKI cells. Format: ADME, cell-based, Canis lupus familiaris. The conditions noted are these: dog, MDCK.
The next data set has as its system MDR1. As to the kind of experiment: Apparent permeability of the compound from apical to basolateral direction in MDCKI cells expressing MDR1. Format: ADME, cell-based, Canis lupus familiaris. The conditions noted are these: dog, MDCK-MDR1.
Data set [5] is described as follows: Oral bioavailability in rat at 5 mg/kg. Particulars: in vivo. Format: ADME, organism-based.
Data set [6] has as its target Receptor-type tyrosine-protein kinase FLT3 (Homo sapiens) (UniProt P36888). Description: Inhibition of FLT3 at 1 uM.
Data set [7] is described as follows: Plasma protein binding in mouse. The format is ADME, cell-free. Particulars: read-out: PPB (converted).
The subject of data set [8] is Mus musculus. As to the kind of experiment: In vivo inhibition of PI3K in human PC3 cells xenografted athymic nude mouse assessed as reduction of phosphorylated Akt level at 50 mg/kg, po after 1 hr. Format: functional. The conditions noted are these: PC-3, 1 h. A general note: In xenograft studies the graft and the host belong to different species.
For data set [9], the system named is Mus musculus. Description: In vivo inhibition of PI3K in human PC3 cells xenografted athymic nude mouse assessed as reduction of phosphorylated Akt level at 50 mg/kg, po after 6 hrs. Format: functional. Particulars: PC-3, 6 h.
The subject of data set [10] is Mus musculus. As to the kind of experiment: In vivo inhibition of PI3K in human PC3 cells xenografted athymic nude mouse assessed as reduction of phosphorylated PRAS40 level at 50 mg/kg, po after 1 hr. Format: functional. The conditions noted are these: PC-3, 1 h.
For data set [11], the system named is Mus musculus. As to the kind of experiment: In vivo inhibition of PI3K in human PC3 cells xenografted athymic nude mouse assessed as reduction of phosphorylated PRAS40 level at 50 mg/kg, po after 6 hrs. Format: functional. Particulars: PC-3, 6 h.
Data set [12] has as its system Mus musculus. As to the kind of experiment: In vivo inhibition of PI3K in human PC3 cells xenografted athymic nude mouse assessed as reduction of phosphorylated S6RP level at 50 mg/kg, po after 1 hr. Format: functional. The conditions noted are these: PC-3, 1 h.
The subject of data set [13] is Mus musculus. Description: In vivo inhibition of PI3K in human PC3 cells xenografted athymic nude mouse assessed as reduction of phosphorylated S6RP level at 50 mg/kg, po after 6 hrs. The format is functional. Particulars: PC-3, 6 h.
The target in data set [14] is DNA-dependent protein kinase catalytic subunit (Homo sapiens, UniProt P78527). As to the kind of experiment: Inhibition of DNA-PK.
In data set [15] the target is Serine/threonine-protein kinase mTOR (Homo sapiens, UniProt P42345). Description: Inhibition of mTOR. The conditions noted are these: read-out: Ki(app).
Data set [16] is described as follows: Plasma clearance in human PC3 cells xenografted athymic nude mouse. Format: ADME, organism-based, PC-3.
Data set [17] in a line: Oral bioavailability in human PC3 cells xenografted athymic nude mouse at 5 mg/kg. The format is ADME, organism-based, PC-3. The conditions noted are these: in vivo.
Data set [18] in a line: Volume of distribution at steady state in human PC3 cells xenografted athymic nude mouse. The format is ADME, organism-based, PC-3. The conditions noted are these: in vivo, read-out: Vdss.
A short description of data set [19]: Inhibition of human Cytochrome P450. The format is ADME.
Data set [20] in a line: Metabolic stability in human hepatocytes assessed as compound remaining after 3 hrs. Format: ADME, cell-based, Hepatocyte. The conditions noted are these: read-out: Stability.
Data set [21] is described as follows: Metabolic stability in mouse hepatocytes assessed as compound remaining after 3 hrs. The format is ADME, cell-based, Hepatocyte. The conditions noted are these: read-out: Stability.
For the next data set, the system named is MCF7. As to the kind of experiment: Cytotoxicity against human MCF7 cells. The format is functional, cell-based.
The subject of data set [22] is Bcrp1. Description: Apparent permeability of the compound from apical to basolateral direction in MDCK2 cells expressing Bcrp1. Particulars: dog. The format is ADME, cell-based, Canis lupus familiaris, MDCK-II.
Data set [23] can be described thus: Ratio of permeability from basolateral to apical over apical to basolateral side in MDCKI cells. The conditions noted are these: dog.
A short description of data set [24]: Ratio of permeability from basolateral to apical over apical to basolateral side in MDCKI cells expressing MDR1. The conditions noted are these: dog.
The nature of data set [25]: Ratio of permeability from basolateral to apical over apical to basolateral side in MDCK2 cells expressing Bcrp1. The conditions noted are these: dog, mdck-ii.
The test system of data set [26] is Bcrp1. As to the kind of experiment: Apparent permeability of the compound from apical to basolateral direction in MDCK2 cells expressing Bcrp1 in presence of fumitremorgin C. Format: ADME, cell-based, Canis lupus familiaris, MDCK-II. The conditions noted are these: dog, with fumitremorgin C.
Data set [27] is described as follows: Ratio of permeability from […] side in MDCK2 cells expressing Bcrp1 in presence of fumitremorgin C. The format is ADME, cell-based, Canis lupus familiaris. Particulars: dog, mdck-ii.

pEC50, pIC50, pKi: −log10 of the molar value. Converted amounts (≈) assume the structure as drawn.

A word on the pIC50: it is −log10 of the IC50, conventionally taken in molar units. A low value points to a large IC50. Usually clearance stands for the rate of elimination divided by the concentration. Read a high clearance as a high capacity for elimination. A word on the solubility: it is the dissolved amount per volume that the medium holds. Lower therefore signals a poorly soluble substance. What is called Papp A→B is how fast a substance crosses the layer from the apical side. What is called inhibition is the drop in the measured response relative to a control, in per cent. A higher inhibition goes with a response far below the control. One may read the inhibition in vivo as the relative decrease from the control value, in per cent. In general, pKi refers to −log10 of the Ki, conventionally taken in molar units. For orientation: pEC50 means the EC50 on a negative log10 scale, so that one unit is a factor of ten.

Chain of Phosphatidylinositol 4,5-bisphosphate 3-kinase catalytic subunit alpha isoform (P42336 whole entry, canonical isoform): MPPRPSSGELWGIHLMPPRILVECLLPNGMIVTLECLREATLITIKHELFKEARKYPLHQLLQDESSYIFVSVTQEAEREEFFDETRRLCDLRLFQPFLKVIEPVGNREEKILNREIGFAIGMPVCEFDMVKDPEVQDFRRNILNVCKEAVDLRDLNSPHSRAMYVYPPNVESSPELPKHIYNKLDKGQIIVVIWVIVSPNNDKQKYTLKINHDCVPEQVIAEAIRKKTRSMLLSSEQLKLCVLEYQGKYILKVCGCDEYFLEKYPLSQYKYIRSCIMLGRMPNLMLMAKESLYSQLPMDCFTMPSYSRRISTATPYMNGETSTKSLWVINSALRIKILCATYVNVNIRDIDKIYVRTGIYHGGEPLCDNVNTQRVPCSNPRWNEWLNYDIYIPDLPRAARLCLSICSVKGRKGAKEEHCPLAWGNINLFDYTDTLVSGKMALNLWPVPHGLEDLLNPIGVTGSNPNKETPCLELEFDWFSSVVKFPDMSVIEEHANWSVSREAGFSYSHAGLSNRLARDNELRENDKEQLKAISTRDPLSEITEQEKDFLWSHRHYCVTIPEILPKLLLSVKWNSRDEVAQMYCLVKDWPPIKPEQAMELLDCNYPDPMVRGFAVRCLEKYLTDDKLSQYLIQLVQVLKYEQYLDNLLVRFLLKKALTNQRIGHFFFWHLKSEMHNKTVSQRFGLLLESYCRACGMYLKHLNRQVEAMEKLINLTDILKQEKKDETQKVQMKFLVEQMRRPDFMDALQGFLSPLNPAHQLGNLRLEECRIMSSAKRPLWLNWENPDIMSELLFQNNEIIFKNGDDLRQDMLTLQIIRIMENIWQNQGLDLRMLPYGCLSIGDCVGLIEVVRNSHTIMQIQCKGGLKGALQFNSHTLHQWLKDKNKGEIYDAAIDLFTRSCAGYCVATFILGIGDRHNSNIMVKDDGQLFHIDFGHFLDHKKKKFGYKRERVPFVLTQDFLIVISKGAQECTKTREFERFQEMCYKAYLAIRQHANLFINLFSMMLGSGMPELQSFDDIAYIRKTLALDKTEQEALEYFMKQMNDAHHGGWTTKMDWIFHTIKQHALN
Chain of Receptor-type tyrosine-protein kinase FLT3 (Homo sapiens) (P36888 whole entry): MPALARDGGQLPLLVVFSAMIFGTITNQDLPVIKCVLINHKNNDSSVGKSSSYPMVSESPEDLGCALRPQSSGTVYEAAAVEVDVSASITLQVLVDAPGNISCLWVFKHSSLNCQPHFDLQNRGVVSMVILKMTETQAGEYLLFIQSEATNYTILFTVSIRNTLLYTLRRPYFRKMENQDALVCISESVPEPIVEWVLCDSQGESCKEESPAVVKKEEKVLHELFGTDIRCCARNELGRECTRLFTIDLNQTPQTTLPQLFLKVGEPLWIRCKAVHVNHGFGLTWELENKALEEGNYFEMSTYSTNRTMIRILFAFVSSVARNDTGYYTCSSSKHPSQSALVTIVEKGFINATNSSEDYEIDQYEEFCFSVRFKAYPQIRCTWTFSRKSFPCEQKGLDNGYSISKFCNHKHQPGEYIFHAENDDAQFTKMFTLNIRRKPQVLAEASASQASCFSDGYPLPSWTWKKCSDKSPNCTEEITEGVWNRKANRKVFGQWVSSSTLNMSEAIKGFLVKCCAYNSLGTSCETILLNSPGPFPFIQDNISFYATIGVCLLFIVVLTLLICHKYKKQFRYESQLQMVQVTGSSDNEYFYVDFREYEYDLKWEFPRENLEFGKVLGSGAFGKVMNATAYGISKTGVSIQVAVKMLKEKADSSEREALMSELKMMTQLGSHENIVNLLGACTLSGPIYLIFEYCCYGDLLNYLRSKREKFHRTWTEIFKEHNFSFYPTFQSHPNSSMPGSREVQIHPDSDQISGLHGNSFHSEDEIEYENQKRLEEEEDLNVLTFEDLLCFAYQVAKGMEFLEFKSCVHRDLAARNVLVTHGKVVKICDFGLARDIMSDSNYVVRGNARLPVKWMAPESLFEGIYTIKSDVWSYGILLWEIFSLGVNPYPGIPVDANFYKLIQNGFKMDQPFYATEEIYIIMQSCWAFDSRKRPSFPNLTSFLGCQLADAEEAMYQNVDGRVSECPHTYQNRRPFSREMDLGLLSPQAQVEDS

On to `COc1cccc(Nc2nc(N3CCCCC3)nc3c2cnn3C)c1`, for which the pIC50 in data set [1] is 6.44.
On the same count and under the same terms, under `COc1cccc(Nc2nc(N3CCOCC3)nc3c2cnn3C)c1` stands 6.79.
Consider `Cn1ncc2c(Oc3ccc(S(C)(=O)=O)cc3)cc(-c3cccc4[nH]ncc34)nc21`, for which the clearance in data set [2] amounted to 8.4 mL/min/kg; in [16], 12.7 mL/min/kg. The same compound came in with a solubility in data set [3] of 15 µg/mL (≈ 35.8 µM). Also, the Papp A→B in data set [4] came to 13.9 ×10⁻⁶ cm/s; in the data set with MDR1 it was 1.2 ×10⁻⁶ cm/s. In addition, the bioavailability in [5] amounted to 107%; in [17], 110%. The compound also came in with an inhibition in data set [6] of 27%. For the same compound, the fraction unbound in data set [7] was 0.012. For the same compound, the inhibition in vivo at 50 mg/kg was found to be 44% in the data set on Mus musculus [8]; 34% in the data set with Mus musculus [9]; 23% with Mus musculus [10]; 11% with Mus musculus [11]; 36% in the data set with Mus musculus [12]; 17% in the data set with Mus musculus [13]. In addition, the pIC50 was 5.99 in [14] and less than 4.70 in data set [19]. Moreover, the pKi in [15] was less than 5.00. For the same compound, in [18], the Vd stood at 1.1 L/kg. Also, the remaining at 3 h in data set [20] was determined as 94%; in data set [21], 100%.
On to `Cn1ncc2c(NCCCS(C)(=O)=O)nc(-c3cccc4n[nH]cc34)nc21`, for which the pEC50 in the data set on MCF7 was 6.39. Further, the clearance in data set [2] is 139 mL/min/kg.
As for `COc1cccc(Nc2nc(-c3cccc(S(C)(=O)=O)c3)nc3c2cnn3C)c1`, the pIC50 in data set [1] is 7.25.
The compound `COc1cccc(Nc2nc(-c3cnc(N)nc3)nc3c2cnn3C)c1` had a pIC50 in [1] of 7.80.
As for `Cn1ncc2c(Oc3ccc(S(C)(=O)=O)cc3)nc(-c3cccc4[nH]ncc34)nc21`, the pIC50 in [1] was 8.52. In addition, the clearance in [2] was determined as 2 mL/min/kg. Moreover, the solubility in data set [3] stood at 16 µg/mL (≈ 38.1 µM). Moreover, the Papp A→B worked out at 2.5 ×10⁻⁶ cm/s in data set [4], 0.8 ×10⁻⁶ cm/s in the data set with MDR1 and 0.05 ×10⁻⁶ cm/s in the data set on Bcrp1 [22]. Moreover, the bioavailability in [5] came to 29%. Moreover, the Ratio in [23] was 0.7; in [24] it was 4.2; in data set [25], 55.1.
Regarding `Cn1ncc2c(NCC(C)(C)CO)nc(-c3cccc4[nH]ncc34)nc21`, the pIC50 in data set [1] was 8.96. For the same compound, in [2], the clearance was 103 mL/min/kg.
`COc1cccc(Nc2nc(-c3cccc(C(N)=O)c3)nc3c2cnn3C)c1` gave a negative logarithm of the IC50 (pIC50) in data set [1] of 7.14.
In the case of `Cn1ncc2c(-c3ccc(S(C)(=O)=O)cc3)nc(-c3cccc4[nH]ncc34)nc21`, the pIC50 in [1] was 8.31. The solubility in [3] is less than 1 µg/mL. For the same compound, the Papp A→B in [4] came out at 31.5 ×10⁻⁶ cm/s; in the data set on MDR1 it was 7.6 ×10⁻⁶ cm/s; in the data set on Bcrp1 [22], 3.8 ×10⁻⁶ cm/s. Besides, the figures for the Ratio in [23], in [24] and in data set [25] were 0.5, 3.2 and 4.8, respectively.
Compound `COc1cccc(Nc2nc(-c3cccc4[nH]ncc34)nc3c2cnn3C)c1` showed a pIC50 in [1] of 8.85.
On the same count and under the same terms, in the case of `COc1cccc(Nc2nc(N3CC(C)OC(C)C3)nc3c2cnn3C)c1` (stereo not drawn) it was 6.43.
On to `Cn1ncc2c(Nc3ccc(S(C)(=O)=O)cc3)nc(-c3cccc4[nH]ncc34)nc21`, for which, in data set [1], the pIC50 was 8.85. In the data set with MCF7, the negative-log EC50 (pEC50) was 7.06. Further, the clearance in data set [2] worked out at 20 mL/min/kg. This compound also gave a solubility in data set [3] of 7.1 µg/mL (≈ 16.9 µM). The apparent permeability from apical to basolateral (Papp A→B) in data set [4] worked out at 0.37 ×10⁻⁶ cm/s; in the data set with MDR1 it was 0.13 ×10⁻⁶ cm/s; in the data set with Bcrp1 [22] it was 0.03 ×10⁻⁶ cm/s; in the data set with Bcrp1 [26], 0.63 ×10⁻⁶ cm/s. In addition, the bioavailability in data set [5] was 0%. Besides, the Ratio in data set [27] was 17.6; in [23], 6.7; in data set [24] it was 79; in data set [25], 311.
In turn, `COc1cccc(Nc2nc(-c3cccc4onc(C)c34)nc3c2cnn3C)c1` gave a pIC50 in data set [1] of 8.77.
Regarding `COc1cccc(Nc2nc(-c3cccc4[nH]nc(N)c34)nc3c2cnn3C)c1`, the pIC50 in data set [1] was 7.96.
Still for that read-out and setting: in the case of `COc1cccc(Nc2nc(N3CCC(O)CC3)nc3c2cnn3C)c1` it was 6.37.
The same measure, in the same setting: in the case of `CNC(=O)c1cccc(-c2nc(Nc3cccc(OC)c3)c3cnn(C)c3n2)c1` it was 5.44; in that of `COc1cccc(Nc2nc(-c3cccc(NC(C)=O)c3)nc3c2cnn3C)c1`, 6.41.
Take `COc1cccc(Nc2nc(-c3cccnc3)nc3c2cnn3C)c1`: the pIC50 in data set [1] is 7.54.
In data set [1], `CN1CCC(Nc2nc(-c3cccc4[nH]ncc34)nc3c2cnn3C)CC1` gave a negative logarithm of the IC50 (pIC50) of 8.08. Moreover, the pEC50 in the data set on MCF7 was 5.82. This compound also gave a clearance in data set [2] of 176 mL/min/kg.
`COc1cccc(Nc2nc(-c3cccc(OC)c3)nc3c2cnn3C)c1`: the pIC50 in [1] is 6.87.
